Measurements from patent US5451581A, “Antibiotic LL-14E605β and O-methyl-LL-14E605β” (priority 1993, dated 1995).

Assays:
[1] = test system: Enterococcus faecium (ID-4133); assay: In vitro antibacterial activity, standard agar dilution (MIC); assay type: cell-based; conditions: Mueller-Hinton agar, about 18 hours, approximately 35° C.
Protocol: (§1) The in vitro antibacterial activity of LL-14E605β and O-methyl-LL-14E605β is determined against a spectrum of gram positive and gram-negative bacteria by a standard agar dilution method. Mueller-Hinton agar containing two fold decreasing concentrations of the antibiotics is poured into petri plates. The agar surfaces are inoculated with 1 to 5×10^4 colony forming units of bacteria by means of a Steer's replicating device. The lowest concentration of the LL-14E605 antibiotics that inhibits growth of a bacterial strain after about 18 hours of incubation at approximately 35° C. is recorded as the minimal inhibitory concentration (MIC) for that strain.

[2] = test system: Staphylococcus, coagluase negative (ID-3135); assay: as above; assay type: cell-based; conditions: Mueller-Hinton agar, about 18 hours, approximately 35° C.
Protocol: as §1

[3] = test system: Enterococcus faecalis (ID-2131); assay: as above; assay type: cell-based; conditions: Mueller-Hinton agar, about 18 hours, approximately 35° C.
Protocol: as §1

[4] = test system: Staphylococcus aureus (NEMC-89-4); assay: as above; assay type: cell-based; conditions: Mueller-Hinton agar, about 18 hours, approximately 35° C.
Protocol: as §1

[5] = test system: Staphylococcus aureus (4379); assay: as above; assay type: cell-based; conditions: Mueller-Hinton agar, about 18 hours, approximately 35° C.
Protocol: as §1

Escherichia coli (J2445) = assay: as above; assay type: cell-based; conditions: Mueller-Hinton agar, about 18 hours, approximately 35° C.
Protocol: as §1

[6] = test system: Staphylococcus hemolyticus (ID 4061); assay: as above; assay type: cell-based; conditions: Mueller-Hinton agar, about 18 hours, approximately 35° C.
Protocol: as §1

[7] = test system: Enterococcus faecalis (12201); assay: as above; assay type: cell-based; conditions: Mueller-Hinton agar, about 18 hours, approximately 35° C.
Protocol: as §1

[8] = test system: Pseudomanas aeruginosa (ATCC 27853); assay: as above; assay type: cell-based; conditions: Mueller-Hinton agar, about 18 hours, approximately 35° C.
Protocol: as §1

[9] = test system: Escherichia coli (ATCC 25922); assay: as above; assay type: cell-based; conditions: Mueller-Hinton agar, about 18 hours, approximately 35° C.
Protocol: as §1

[10] = test system: Enterococcus avium (ID-3953); assay: as above; assay type: cell-based; conditions: Mueller-Hinton agar, about 18 hours, approximately 35° C.
Protocol: as §1

[11] = test system: Micrococcus luteus (ATCC 9341); assay: as above; assay type: cell-based; conditions: Mueller-Hinton agar, about 18 hours, approximately 35° C.
Protocol: as §1

[12] = test system: Staphylococcus aureus (ATCC 29213); assay: as above; assay type: cell-based; conditions: Mueller-Hinton agar, about 18 hours, approximately 35° C.
Protocol: as §1

[13] = test system: Staphylococcus aureus (ID-3105); assay: as above; assay type: cell-based; conditions: Mueller-Hinton agar, about 18 hours, approximately 35° C.
Protocol: as §1

[14] = test system: Staphylococcus, coagiuase negative (ID-4615); assay: as above; assay type: cell-based; conditions: Mueller-Hinton agar, about 18 hours, approximately 35° C.
Protocol: as §1

[15] = test system: Staphylococcus, coagluase negative (ID-3276); assay: as above; assay type: cell-based; conditions: Mueller-Hinton agar, about 18 hours, approximately 35° C.
Protocol: as §1

Bacillus cereus (Bacto) = assay: as above; assay type: cell-based; conditions: Mueller-Hinton agar, about 18 hours, approximately 35° C.
Protocol: as §1

[16] = test system: Staphylococcus aureus (ID-2371); assay: as above; assay type: cell-based; conditions: Mueller-Hinton agar, about 18 hours, approximately 35° C.
Protocol: as §1

[17] = test system: Enterococcus faecalis (ATCC 29212); assay: as above; assay type: cell-based; conditions: Mueller-Hinton agar, about 18 hours, approximately 35° C.
Protocol: as §1

[18] = test system: Staphylococcus, coagluase negative (ID-3120); assay: as above; assay type: cell-based; conditions: Mueller-Hinton agar, about 18 hours, approximately 35° C.
Protocol: as §1

[19] = test system: Staphylococcus, coagluase negative (ID-3941); assay: as above; assay type: cell-based; conditions: Mueller-Hinton agar, about 18 hours, approximately 35° C.
Protocol: as §1

Escherichia coli (J2175) = assay: as above; assay type: cell-based; conditions: Mueller-Hinton agar, about 18 hours, approximately 35° C.
Protocol: as §1

[20] = test system: Enterococcus faecalis (ID-1829); assay: as above; assay type: cell-based; conditions: Mueller-Hinton agar, about 18 hours, approximately 35° C.
Protocol: as §1

[21] = test system: Enterococcus faecium (ID-3301); assay: as above; assay type: cell-based; conditions: Mueller-Hinton agar, about 18 hours, approximately 35° C.
Protocol: as §1

[22] = test system: Staphylococcus aureus (ID-2727); assay: as above; assay type: cell-based; conditions: Mueller-Hinton agar, about 18 hours, approximately 35° C.
Protocol: as §1

[23] = test system: Morganella morganii (VGH 84-11); assay: as above; assay type: cell-based; conditions: Mueller-Hinton agar, about 18 hours, approximately 35° C.
Protocol: as §1

[24] = test system: Enterococcus faecalis (ID-4168); assay: as above; assay type: cell-based; conditions: Mueller-Hinton agar, about 18 hours, approximately 35° C.
Protocol: as §1

[25] = test system: Staphylococcus aureus (SMITH); assay: as above; assay type: cell-based; conditions: Mueller-Hinton agar, about 18 hours, approximately 35° C.
Protocol: as §1

[26] = test system: Enterococcus faecium (12202); assay: as above; assay type: cell-based; conditions: Mueller-Hinton agar, about 18 hours, approximately 35° C.
Protocol: as §1

[27] = Relative activity of the components of the LL-14E605 complex; conditions: listed as LL-14E605β

Row | Minimal Inhibitory Concentration (MIC) [1] | Minimal Inhibitory Concentration (MIC) [2] | Minimal Inhibitory Concentration (MIC) [3] | Minimal Inhibitory Concentration (MIC) [4] | Minimal Inhibitory Concentration (MIC) [5] | Minimal Inhibitory Concentration (MIC) (Escherichia coli (J2445)) | Minimal Inhibitory Concentration (MIC) [7] | Minimal Inhibitory Concentration (MIC) [8] | Minimal Inhibitory Concentration (MIC) [9] | Minimal Inhibitory Concentration (MIC) [10] | Minimal Inhibitory Concentration (MIC) [11] | Minimal Inhibitory Concentration (MIC) [12] | Minimal Inhibitory Concentration (MIC) [13] | Minimal Inhibitory Concentration (MIC) [14] | Minimal Inhibitory Concentration (MIC) [15] | Minimal Inhibitory Concentration (MIC) (Bacillus cereus (Bacto)) | Minimal Inhibitory Concentration (MIC) [16] | Minimal Inhibitory Concentration (MIC) [17] | Minimal Inhibitory Concentration (MIC) [18] | SMILES | Minimal Inhibitory Concentration (MIC) [6] | further results
1 | 8 µg/mL | 1 µg/mL | 4 µg/mL | 0.5 µg/mL | 0.25 µg/mL | > 32 µg/mL | 4 µg/mL | > 32 µg/mL | > 32 µg/mL | 8 µg/mL | 0.5 µg/mL | 0.25 µg/mL | 0.25 µg/mL | 0.25 µg/mL | 0.5 µg/mL | 0.5 µg/mL | 0.5 µg/mL | 8 µg/mL | 1 µg/mL | COC(C)=C1NC(=O)C(C(C)O)NC(=O)c2csc(n2)-c2cc(OC)c(-c3nc(C(N)=O)cs3)nc2-c2csc(n2)C2CSC(=O)c3[nH]c4cccc5c4c3COC(C(OC3CC(C)(O)C(N(C)C)C(C)O3)C(=O)OC5)C(NC(=O)c3csc1n3)c1nc(cs1)C(=O)N2 [O-methyl-L-14E605beta] | 1 µg/mL | Minimal Inhibitory Concentration (MIC) [19]: 4 µg/mL; Minimal Inhibitory Concentration (MIC) (Escherichia coli (J2175)): > 32 µg/mL; Minimal Inhibitory Concentration (MIC) [20]: 8 µg/mL; Minimal Inhibitory Concentration (MIC) [21]: 8 µg/mL; Minimal Inhibitory Concentration (MIC) [22]: 0.25 µg/mL; Minimal Inhibitory Concentration (MIC) [23]: > 32 µg/mL; Minimal Inhibitory Concentration (MIC) [24]: 8 µg/mL; Minimal Inhibitory Concentration (MIC) [25]: 0.25 µg/mL; Minimal Inhibitory Concentration (MIC) [26]: 8 µg/mL
2 | ≤ 0.005 µg/mL | 0.03 µg/mL | 0.015 µg/mL | 0.015 µg/mL | 0.015 µg/mL | 0.06 µg/mL | 0.015 µg/mL | > 64 µg/mL | > 64 µg/mL | 0.002 µg/mL | 0.002 µg/mL | 0.015 µg/mL | 0.015 µg/mL | 0.015 µg/mL | 0.008 µg/mL | 0.06 µg/mL | 0.015 µg/mL | 0.015 µg/mL | 0.06 µg/mL | COC(C)=C1NC(=O)C(C(C)O)NC(=O)c2csc(n2)-c2cc(O)c(-c3nc(C(N)=O)cs3)nc2-c2csc(n2)C2CSC(=O)c3[nH]c4cccc5c4c3COC(C(OC3CC(C)(O)C(N(C)C)C(C)O3)C(=O)OC5)C(NC(=O)c3csc1n3)c1nc(cs1)C(=O)N2 (stereo not drawn) [LL-14E605-beta] | 0.03 µg/mL | Minimal Inhibitory Concentration (MIC) [19]: 0.06 µg/mL; Minimal Inhibitory Concentration (MIC) (Escherichia coli (J2175)): > 64 µg/mL; Minimal Inhibitory Concentration (MIC) [20]: 0.002 µg/mL; Minimal Inhibitory Concentration (MIC) [21]: 0.015 µg/mL; Minimal Inhibitory Concentration (MIC) [22]: 0.008 µg/mL; Minimal Inhibitory Concentration (MIC) [23]: > 64 µg/mL; Minimal Inhibitory Concentration (MIC) [24]: 0.015 µg/mL; Minimal Inhibitory Concentration (MIC) [25]: 0.008 µg/mL; Minimal Inhibitory Concentration (MIC) [26]: 0.004 µg/mL; activity relative to the other components of the LL-14E605 complex [27]: most active component of the LL-14E605 complex
